Laboratory results published in patent US20050176773A1, “Antiproliferative 2-(heteroaryl)-aminothiazole compounds and pharmaceutical compositions, and method for their use” (AGOURON PHARMACEUTICALS, INC., priority 2003, published 2005).
Each block holds one compound with its values, some of them ahead of it.

Legend:
[1] = target: T1, human CDK4 / truncated (1-264) cyclin D3 complex (Homo sapiens, UniProt P11802); test: Inhibition of CDK4/Cyclin D retinoblastoma kinase activity; format: biochemical; settings: Rb fragment substrate, enzyme complex 5 nM
T1 construct: made in house; host or cells: insect cells (baculovirus co-infection)
T1 sequence (P11802 whole entry, the tested form may be a part): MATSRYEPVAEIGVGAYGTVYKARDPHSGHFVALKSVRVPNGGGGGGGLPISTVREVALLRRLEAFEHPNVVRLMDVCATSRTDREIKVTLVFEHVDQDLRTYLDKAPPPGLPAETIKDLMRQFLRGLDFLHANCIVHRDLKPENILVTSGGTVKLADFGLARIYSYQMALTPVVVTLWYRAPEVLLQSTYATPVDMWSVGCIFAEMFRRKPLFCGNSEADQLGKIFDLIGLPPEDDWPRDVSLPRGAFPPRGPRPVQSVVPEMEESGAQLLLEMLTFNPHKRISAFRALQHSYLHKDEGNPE
T1 sequence (P30281 1-264 partner limits assumed): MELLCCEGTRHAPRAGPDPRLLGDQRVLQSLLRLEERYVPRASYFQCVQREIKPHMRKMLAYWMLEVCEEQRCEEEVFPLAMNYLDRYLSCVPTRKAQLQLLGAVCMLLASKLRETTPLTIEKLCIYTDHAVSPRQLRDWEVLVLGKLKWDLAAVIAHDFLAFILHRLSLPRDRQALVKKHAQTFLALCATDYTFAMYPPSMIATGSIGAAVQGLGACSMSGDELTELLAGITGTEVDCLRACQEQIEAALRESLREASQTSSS
Description: Inhibition of CDK4/Cyclin D Retinoblastoma Kinase Activity:
A complex of human CDK4 and genetically truncated (1-264) cyclin D3 was purified using traditional biochemical chromatographic techniques from insect cells that had been co-infected with the corresponding baculovirus expression vectors (see e.g., Meijer, L.; Kim, S.-H. In Methods Enzymol. 1997, 283, 113-128). The enzyme complex (5 nM) was assayed with 0.3-0.5 μg of purified recombinant retinoblastoma protein fragment (Rb) as a substrate. The engineered Rb fragment (residues 386-928 of the native retinoblastoma protein; 62.3 kDa) contains the majority of the phosphorylation sites found in the native 106-kDa protein, as well as a tag of six histidine residues for ease of purification. Phosphorylated Rb substrate was captured by microfiltration on a nitrocellulose membrane and quantified using a phosphorimager as described above. For measurement of tight-binding inhibitors, the assay duration was extended to 60 minutes, during which the time dependence of product formation was linear and initial rate conditions were met.

[2] = target: T2, CDK2 / proteolyzed cyclin A complex (Homo sapiens, UniProt P24941); test: Inhibition of CDK2/Cyclin A retinoblastoma kinase activity; format: biochemical; settings: Rb fragment substrate, CDK2 at 10 nM or 19 nM
T2 construct: made in house; host or cells: CDK2: insect cells (baculovirus); cyclin A: E. coli, then limited proteolysis
From the text: Inhibition of CDK2/Cyclin A Retinoblastoma Kinase Activity:
CDK2 was purified using published methodology (Rosenblatt, J.; De Bondt, H.; Jancarik, J.; Morgan, D. O.; Kim, S. H. J. Mol. Biol. 1993, 230, 1317-1319) from insect cells that had been infected with a baculovirus expression vector. Cyclin A was purified from E. coli cells expressing full-length recombinant cyclin A, and a truncated cyclin A construct was generated by limited proteolysis and purified as described previously (Jeffrey, P. D.; Russo, A. A.; Polyak, K.; Gibbs, E.; Hurwitz, J.; Massague, J.; Pavletich, N. P. Nature 1995, 376, 313-320.). A complex of CDK2 and proteolyzed cyclin A was prepared and purified by gel filtration. The substrate for this assay was the same Rb substrate fragment used for the CDK4 assays, and the methodology of the CDK2/delta cyclin A and the CDK4/delta cyclin D3 assays was essentially the same, except that CDK2 was present at 10 nM or 19 nM. The duration of the assay was 60 or 75 minutes, during which the time dependence of product formation was linear and initial rate conditions were met.

HCT-116 cells = test: Inhibition of cell growth, MTT tetrazolium salt assay; format: cell-based; settings: Homo sapiens, 144 h, four to six days incubation; for IC50: first value of the cell, read-out: HCT116 IC50; for IC90: second value of the cell, 90% inhibition of growth, read-out: HCT116 IC90
Description: Inhibition of Cell Growth: Assessment of Cytotoxicity:
Inhibition of cell growth was measured using the tetrazolium salt assay, which is based on the ability of viable cells to reduce 3-(4,5-dimethylthiazol-2-yl)-2,5-[2H]-diphenyltetrazolium bromide (MTT) to formazan (Mosmann, T. J. Immunol. Methods 1983, 65, 55-63). The water-insoluble purple formazan product was then detected spectrophotometrically. HCT-116 cells were grown in 96-well plates. Cells were plated in the appropriate medium at a volume of 135 μl/well in either McCoy's 5A Medium. Plates were incubated for 4 hours before addition of inhibitor compounds. Different concentrations of inhibitor compounds were added in 0.5% (v/v) dimethylsulfoxide (15 μL/well), and cells were incubated at 37° C. (5% CO2) for four to six days (depending on cell type). At the end of the incubation, MTT was added to a final concentration of 0.2 mg/mL, and cells were incubated for 4 hours more at 37° C. After centrifugation of the plates and removal of medium, the absorbance of the formazan (solubilized in dimethylsulfoxide) was measured at 540 nm. The concentration of inhibitor compound causing 50% (IC50) or 90% (IC90) inhibition of growth was determined from the linear portion of a semi-log plot of inhibitor concentration versus percentage inhibition. All results were compared to control cells treated only with 0.5% (v/v) dimethylsulfoxide.

Compound: CN1CCC[C@H]1CNC(=O)c1ccc(Nc2nc(N)c(C(=O)c3c(F)cccc3F)s2)nc1 [Example 1A]
Ki [1]: 0.77 nM | Ki [2]: 7.3 nM | IC50 (HCT-116 cells): 7 nM | IC90 (HCT-116 cells): 170 nM

Compound: CN(C)C1(CNC(=O)c2ccc(Nc3nc(N)c(C(=O)c4c(F)cccc4F)s3)nc2)CCC1 [Example 1B, 6-[4-Amino-5-(2,6-difluoro-benzoyl)-thiazol-2-ylamino]-N-(1-dimethylaminocyclobutylmethyl)-nicotinamide]
Ki [1]: 2.7 nM | Ki [2]: 39 nM | IC50 (HCT-116 cells): 5.8 nM | IC90 (HCT-116 cells): 20 nM

Compound: Nc1nc(Nc2ccc(C(=O)NCc3ccccn3)cn2)sc1C(=O)c1c(F)cccc1F [Example 1C, 6-[4-Amino-5-(2,6-difluoro-benzoyl)-thiazol-2-ylamino]-N-pyridin-2-ylmethyl-nicotinamide]
Ki [1]: 12 nM | Ki [2]: 7.2 nM | IC50 (HCT-116 cells): 79 nM | IC90 (HCT-116 cells): 210 nM

Compound: Nc1nc(Nc2ccc(C(=O)NCc3cccnc3)cn2)sc1C(=O)c1c(F)cccc1F [Example 1D, 6-[4-Amino-5-(2,6-difluoro-benzoyl)-thiazol-2-ylamino]-N-pyridin-3-ylmethyl-nicotinamide]
Ki [1]: 6.6 nM | Ki [2]: 5.7 nM | IC50 (HCT-116 cells): 410 nM | IC90 (HCT-116 cells): > 5000 nM

Compound: Nc1nc(Nc2ccc(C(=O)Nc3ccccc3)cn2)sc1C(=O)c1c(F)cccc1F [Example 1E, 6-[4-Amino-5-(2,6-difluoro-benzoyl)-thiazol-2-ylamino]-N-phenyl-nicotinamide]
Ki [1]: 18 nM | Ki [2]: 17 nM | IC50 (HCT-116 cells): 180 nM | IC90 (HCT-116 cells): 400 nM

Compound: Nc1nc(Nc2ccc(C(=O)NCCN3CCCCC3)cn2)sc1C(=O)c1c(F)cccc1F [Example 1F, 6-[4-Amino-5-(2,6-difluoro-benzoyl)-thiazol-2-ylamino]-N-(2-piperidin-1-yl-ethyl)-nicotinamide]
Ki [1]: 4.3 nM | Ki [2]: 18 nM | IC50 (HCT-116 cells): 17 nM | IC90 (HCT-116 cells): 40 nM

Compound: Nc1nc(Nc2ccc(C(=O)Nc3ccccn3)cn2)sc1C(=O)c1c(F)cccc1F [Example 1G, 6-[4-Amino-5-(2,6-difluoro-benzoyl)-thiazol-2-ylamino]-N-pyridin-2-yl-nicotinamide]
Ki [1]: 35 nM | Ki [2]: 18 nM | IC50 (HCT-116 cells): 170 nM | IC90 (HCT-116 cells): 36000 nM

Compound: CCN1CCCC1CNC(=O)c1ccc(Nc2nc(N)c(C(=O)c3c(F)cccc3F)s2)nc1 (centres unmarked) [Example 1H, 6-[4-Amino-5-(2,6-difluoro-benzoyl)-thiazol-2-ylamino]-N-(1-ethyl-pyrrolidin-2-ylmethyl)-nicotinamide]
Ki [1]: 7.1 nM | Ki [2]: 43 nM | IC50 (HCT-116 cells): 32 nM | IC90 (HCT-116 cells): 60 nM

Second part, the compound after the results:

Ki [1]: 0.61 nM | Ki [2]: 4.4 nM | IC50 (HCT-116 cells): 2.6 nM | IC90 (HCT-116 cells): 5.7 nM
Compound: C[C@H](CN(C)C)NC(=O)c1ccc(Nc2nc(N)c(C(=O)c3c(F)cccc3F)s2)nc1 [Example 1I, 6-[4-Amino-5-(2,6-difluoro-benzoyl)-thiazol-2-ylamino]-N-(2-dimethylamino-1R-methyl-ethyl)-nicotinamide]

Ki [1]: 2.2 nM | Ki [2]: 11 nM | IC50 (HCT-116 cells): 17 nM | IC90 (HCT-116 cells): 50 nM
Compound: Nc1nc(Nc2ccc(C(=O)NCCN3CCCC3)cn2)sc1C(=O)c1c(F)cccc1F [Example 1J, 6-[4-Amino-5-(2,6-difluoro-benzoyl)-thiazol-2-ylamino]-N-(2-pyrrolidin-1-yl-ethyl)-nicotinamide]

Ki [1]: 1.4 nM | Ki [2]: 9.8 nM | IC50 (HCT-116 cells): 8.8 nM | IC90 (HCT-116 cells): 21 nM
Compound: CN(C)CCNC(=O)c1ccc(Nc2nc(N)c(C(=O)c3c(F)cccc3F)s2)nc1 [Example 1K, 6-[4-Amino-5-(2,6-difluoro-benzoyl)-thiazol-2-ylamino]-N-(2-dimethylamino-ethyl)-nicotinamide]

Ki [1]: 1.3 nM | Ki [2]: 8.6 nM | IC50 (HCT-116 cells): 2.5 nM | IC90 (HCT-116 cells): 8.5 nM
Compound: CN(C)C(C)(C)CNC(=O)c1ccc(Nc2nc(N)c(C(=O)c3c(F)cccc3F)s2)nc1 [Example 1L]

Ki [1]: 2.3 nM | Ki [2]: 35 nM | IC50 (HCT-116 cells): 70 nM | IC90 (HCT-116 cells): 250 nM
Compound: CNC(C)(C)CNC(=O)c1ccc(Nc2nc(N)c(C(=O)c3c(F)cccc3F)s2)nc1 [Example 1M]

Ki [1]: 1.1 nM | Ki [2]: 32 nM | IC50 (HCT-116 cells): 70 nM | IC90 (HCT-116 cells): 180 nM
Compound: CN1CCN(c2ccc(Nc3nc(N)c(C(=O)c4c(F)cccc4F)s3)nc2)CC1 [Example 2A, {4-Amino-2-[5-(4-methyl-piperazin-1-yl)-pyridin-2-ylamino]-thiazol-5-yl}-(2,6-difluoro-phenyl)-methanone]

Ki [1]: 3.3 nM | Ki [2]: 21 nM | IC50 (HCT-116 cells): 210 nM | IC90 (HCT-116 cells): 700 nM
Compound: CNCCNC(=O)c1ccc(Nc2nc(N)c(C(=O)c3c(F)cccc3F)s2)nc1 [Example 3A]

Ki [1]: 37 nM | Ki [2]: 320 nM | IC50 (HCT-116 cells): 230 nM | IC90 (HCT-116 cells): 650 nM
Compound: CN1CCC[C@H]1CNC(=O)c1ccc(Nc2nc(N)c(C(=O)c3c(F)cccc3F)s2)cn1 [Example C1A, 5-[4-Amino-5-(2,6-difluoro-benzoyl)-thiazol-2-ylamino]-pyridine-2-carboxylic acid (1-methyl-pyrrolidin-2S-ylmethyl)-amide, reference compound]

Ki [1]: 120 nM | Ki [2]: 400 nM | IC50 (HCT-116 cells): 120 nM | IC90 (HCT-116 cells): 280 nM
Compound: C[C@H](CN(C)C)NC(=O)c1ccc(Nc2nc(N)c(C(=O)c3c(F)cccc3F)s2)cn1 [Example C1B, 5-[4-Amino-5-(2,6-difluoro-benzoyl)-thiazol-2-ylamino]-pyridine-2-carboxylic Acid (2-Dimethylamino-1R-methyl-ethyl)-amide, reference compound]
